Values joined by “and” are separate entries in the source; they are usually repeats but may differ in a detail not shown here. Identical values can stand only once. Like-named read-outs stand apart in the source and are kept apart here.
Tests used:
[1] = In vitro hemolytic activity on healthy erythrocytes; format: cell-based; conditions: healthy erythrocytes (hRBC); 10 µM, 1 h, hRBC only; dash with footnote c = hemolysis not detected; read-out: % hemolysis at 10 µM ± SD (n = 3), hRBC
Description: (§1) For positive and negative controls, 1% Triton X-100 and PBS were added, respectively. After this period, the plates were centrifuged and supernatants transferred to another plate. Supernatant absorbance at 450 nm was assessed in a multi-mode microplate reader (Triad, Dynex Technologies, Chantilly, VA, USA) and values were treated using the following equation (1):(1) % Hemolysis=Abs−Abs(negative control)/Abs(positive control)−Abs(negative control)

P. falciparum 3D7 [2] = format: cell-based; conditions: P. falciparum 3D7 (CQ-sensitive), 48 h; read-out: IC50 ± SD (n = 3)
Description: These second-generation conjugates (synthesis routes depicted in Scheme 2; Scheme 3) were evaluated in vitro, alongside the commercial reference drug, CQ (1), their parent building blocks, TP10 and Cq (4), and first-generation conjugate 5a, regarding their ability to inhibit growth of blood-stage parasites of the CQ-sensitive P. falciparum 3D7 strain (Table 3). The primaquine analogues of Cq conjugates 5a and 14, respectively, PQ-C4-TP10 (3a) and TP10-S-S-PQ (Figure 2, 14′), were also included for comparison; the synthesis of these conjugates, 3a and 14′, has been reported elsewhere. Of note, substantial hemolysis was detected upon erythrocyte exposure to some of the test conjugates, particularly at the higher concentrations tested. In view of this, emolysis assays were also conducted on cultures of both hRBC and PiRBC (Table 3).
P. falciparum 3D7 strain (chloroquine and mefloquine susceptible) was continuously cultured as previously described. Parasitemia was monitored daily by microscopic examination of Giemsa (MERCK, Sigma-Aldrich) stained thin blood smears.
Synchronized ring-stage P. falciparum (3% hematocrit, 1% parasitemia) were incubated in a microtiter plate for 48 h in the presence of two-fold serial dilutions of TP10 and derived conjugates 11–15, in the 10–10000 nM concentration range. Cultures incubated with three-fold serial dilutions of chloroquine bisphosphate, and also of its analogue 4, in the 0.1–8000 nM concentration range, were included for comparison. Culture without test compounds was also added to the microtiter plate, as negative control. After incubation, 100 μL of a solution of SYBR Green (Thermo Fisher; SG; 0.001% v/v in PBS) was added to each well and plates incubated for another 60 min under standard culture conditions. Plates were then centrifuged at 2500 rpm for 2 min, the supernatant was discarded, and cells were re-suspended in 100 μL of PBS. Fluorescence was collected in a multi-mode microplate reader (Triad, Dynex Technologies) with excitation at 485 nm and emission at 535 nm. Fluorescence values were normalized (to take into account the normal growth of the parasite) and then plotted against logC. IC50 were determined using GraphPad Prism 6.

[3] = In vitro hemolytic activity on Plasmodium-infected erythrocyte cultures; format: cell-based; conditions: cultures with 3% PiRBC, dash with footnote c = hemolysis not detected, read-out: % hemolysis at 10 µM ± SD (n = 3), PiRBC
Description: as §1

hRBC = assay: In vitro hemolytic activity on healthy erythrocytes; format: cell-based; conditions: cultures of hRBC and PiRBC, summary of Table 3
Description: as §1

P. falciparum W2 [4] = format: cell-based; conditions: P. falciparum W2 (CQ-resistant), 48 h, n = 3
Description: All conjugates and their respective parent CPP (Table 1), were screened in vitro for their antiplasmodial activity, using the CQ-resistant P. falciparum W2 strain. The primaquine analogue to 5a, i.e., conjugate 3 where the CPP is TP10, PQ-C4-TP10 (3a), was also included in the study for comparison.
Synchronized ring-stage P. falciparum parasites (W2 strain) were incubated with test compounds for 48 h in Roswell Park Memorial Institute (RPMI) 1640 medium containing 10% human serum or 0.5% Albumax serum substitute. Parasites were then fixed with 1% formaldehyde in phosphate-buffered saline (PBS), pH 7.4, for […] at RT and labeled with YOYO-1 (1 nM; molecular probes) in 0.1% Triton X-100 in PBS. Parasitemias were determined by flow cytometry, from dot plots (forward scatter versus fluorescence). For 50% inhibitory concentration (IC50) determinations, dose-response studies were performed, with the values normalized to percent control activity, and IC50s were calculated using GraphPad Prism, with data fitted by nonlinear regression.

P. falciparum 3D7 [5] = conditions: cited from earlier work
P. falciparum W2 [6] = conditions: cited from earlier work

| Molecule | hemolysis at 1 h, 10 µM [1] [%] | IC50 (P. falciparum 3D7 [2]) [nM] | hemolysis at 1 h, 10 µM [3] [%] | hemolytic activity (in words) (hRBC) | IC50 (P. falciparum W2 [4]) | IC50 (P. falciparum 3D7 [5]) [nM] | IC50 (P. falciparum W2 [6]) [nM] |
| --- | --- | --- | --- | --- | --- | --- | --- |
| CC[C@H](C)[C@H](NC(=O)[C@H](CCCCN)NC(=O)[C@H](CCCCN)NC(=O)[C@H](C)NC(=O)[C@H](CC(C)C)NC(=O)[C@H](C)NC(=O)[C@H](C)NC(=O)[C@H](CC(C)C)NC(=O)[C@H](C)NC(=O)[C@H](CCCCN)NC(=O)[C@H](CC(C)C)NC(=O)[C@H](CC(N)=O)NC(=O)[C@@H](NC(=O)[C@H](CCCCN)NC(=O)CNC(=O)[C@H](CC(C)C)NC(=O)[C@H](CC(C)C)NC(=O)[C@H](Cc1ccc(O)cc1)NC(=O)CNC(=O)[C@H](C)NC(=O)CCC(=O)NCCCCNc1ccnc2cc(Cl)ccc12)[C@@H](C)CC)C(=O)N[C@@H](CC(C)C)C(N)=O [5a] | 23 ± 1 | 800 ± 100 | 6.5 ± 0.4 |  |  |  |  |
| CC[C@H](C)[C@H](NC(=O)[C@H](CCCCN)NC(=O)[C@H](CCCCN)NC(=O)[C@H](C)NC(=O)[C@H](CC(C)C)NC(=O)[C@H](C)NC(=O)[C@H](C)NC(=O)[C@H](CC(C)C)NC(=O)[C@H](C)NC(=O)[C@H](CCCCN)NC(=O)[C@H](CC(C)C)NC(=O)[C@H](CC(N)=O)NC(=O)[C@@H](NC(=O)[C@H](CCCCN)NC(=O)CNC(=O)[C@H](CC(C)C)NC(=O)[C@H](CC(C)C)NC(=O)[C@H](Cc1ccc(O)cc1)NC(=O)CNC(=O)[C@H](C)N)[C@@H](C)CC)C(=O)N[C@@H](CC(C)C)C(N)=O [TP10] | 3.7 ± 0.1 | 1900 ± 500 | 3.4 ± 0.2 | only slightly hemolytic | 5530 nM and 5500 nM |  |  |
| CCN(CC)CCCC(C)Nc1ccnc2cc(Cl)ccc12 (stereo not drawn) [compound 1, chloroquine] |  |  |  | not hemolytic |  | 21 | 699 |
| CC[C@H](C)[C@H](NC(=O)[C@H](CCCCN)NC(=O)[C@H](CCCCN)NC(=O)[C@H](C)NC(=O)[C@H](CC(C)C)NC(=O)[C@H](C)NC(=O)[C@H](C)NC(=O)[C@H](CC(C)C)NC(=O)[C@H](C)NC(=O)[C@H](CCCCN)NC(=O)[C@H](CC(C)C)NC(=O)[C@H](CC(N)=O)NC(=O)[C@@H](NC(=O)[C@H](CCCCN)NC(=O)CNC(=O)[C@H](CC(C)C)NC(=O)[C@H](CC(C)C)NC(=O)[C@H](Cc1ccc(O)cc1)NC(=O)CNC(=O)[C@H](C)NC(=O)CCCCCNC(=O)CCC(=O)NCCCCNc1ccnc2cc(Cl)ccc12)[C@@H](C)CC)C(=O)N[C@@H](CC(C)C)C(N)=O [compound 10] | 38 ± 2 | 800 ± 300 | 19 ± 1 |  |  |  |  |
| CC[C@H](C)[C@H](NC(=O)[C@H](CCCCN)NC(=O)[C@H](CCCCN)NC(=O)[C@H](C)NC(=O)[C@H](CC(C)C)NC(=O)[C@H](C)NC(=O)[C@H](C)NC(=O)[C@H](CC(C)C)NC(=O)[C@H](C)NC(=O)[C@H](CCCCN)NC(=O)[C@H](CC(C)C)NC(=O)[C@H](CC(N)=O)NC(=O)[C@@H](NC(=O)[C@H](CCCCN)NC(=O)CNC(=O)[C@H](CC(C)C)NC(=O)[C@H](CC(C)C)NC(=O)[C@H](Cc1ccc(O)cc1)NC(=O)CNC(=O)[C@H](C)NC(=O)[C@@H](N)Cc1cn(CCCCCC(=O)NCCCCNc2ccnc3cc(Cl)ccc23)nn1)[C@@H](C)CC)C(=O)N[C@@H](CC(C)C)C(N)=O [compound 11] | 23 ± 1 | 1200 ± 200 | 10.7 ± 0.1 |  |  |  |  |
| CC[C@H](C)[C@H](NC(=O)[C@H](CCCCN)NC(=O)[C@H](CCCCN)NC(=O)[C@H](C)NC(=O)[C@H](CC(C)C)NC(=O)[C@H](C)NC(=O)[C@H](C)NC(=O)[C@H](CC(C)C)NC(=O)[C@H](C)NC(=O)[C@H](CCCCN)NC(=O)[C@H](CC(C)C)NC(=O)[C@H](CC(N)=O)NC(=O)[C@@H](NC(=O)[C@H](CCCCN)NC(=O)CNC(=O)[C@H](CC(C)C)NC(=O)[C@H](CC(C)C)NC(=O)[C@H](Cc1ccc(O)cc1)NC(=O)CNC(=O)[C@H](C)NC(=O)[C@@H](N)CSSC[C@H](N)C(=O)NCCCCNc1ccnc2cc(Cl)ccc12)[C@@H](C)CC)C(=O)N[C@@H](CC(C)C)C(N)=O [compound 12] | 8.5 ± 0.5 | 1000 ± 300 | 2 ± 0.3 |  |  |  |  |
| CC[C@H](C)[C@H](NC(=O)[C@H](CCCCNC(=O)CCC(=O)NCCCCNc1ccnc2cc(Cl)ccc12)NC(=O)[C@H](CCCCN)NC(=O)[C@H](C)NC(=O)[C@H](CC(C)C)NC(=O)[C@H](C)NC(=O)[C@H](C)NC(=O)[C@H](CC(C)C)NC(=O)[C@H](C)NC(=O)[C@H](CCCCN)NC(=O)[C@H](CC(C)C)NC(=O)[C@H](CC(N)=O)NC(=O)[C@@H](NC(=O)[C@H](CCCCN)NC(=O)CNC(=O)[C@H](CC(C)C)NC(=O)[C@H](CC(C)C)NC(=O)[C@H](Cc1ccc(O)cc1)NC(=O)CNC(=O)[C@H](C)N)[C@@H](C)CC)C(=O)N[C@@H](CC(C)C)C(N)=O [compound 13] | 50 ± 2 |  | 41 ± 2 |  |  |  |  |
| CC[C@H](C)[C@H](NC(=O)[C@H](CCCCN)NC(=O)[C@H](CCCCN)NC(=O)[C@H](C)NC(=O)[C@H](CC(C)C)NC(=O)[C@H](C)NC(=O)[C@H](C)NC(=O)[C@H](CC(C)C)NC(=O)[C@H](C)NC(=O)[C@H](CCCCN)NC(=O)[C@H](CC(C)C)NC(=O)[C@H](CC(N)=O)NC(=O)[C@@H](NC(=O)[C@H](CCCCN)NC(=O)CNC(=O)[C@H](CC(C)C)NC(=O)[C@H](CC(C)C)NC(=O)[C@H](Cc1ccc(O)cc1)NC(=O)CNC(=O)[C@H](C)N)[C@@H](C)CC)C(=O)N[C@@H](CC(C)C)C(=O)N[C@@H](CSSC[C@H](N)C(=O)NCCCCNc1ccnc2cc(Cl)ccc12)C(N)=O [compound 14] | 18.2 ± 0.8 | 2300 ± 400 | 7 ± 1 |  |  |  |  |
| N-(7-Methylquinolin-4-yl)butane-1,4-diamine [compound 4] |  | 70 ± 20 |  | not hemolytic |  |  |  |

From publication PMC6943437, “Coupling the Antimalarial Cell Penetrating Peptide TP10 to Classical Antimalarial Drugs Primaquine and Chloroquine Produces Strongly Hemolytic Conjugates” (Molecules, 2019)
